Laboratory results taken from PubChem BioAssay (NCI).
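Exposure lasted 48 hours, with cells grown in 96-well plates and compounds tested at five concentrations. TGI marks complete inhibition of growth.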

Key:
Test in all cases: growth of human tumour cells (NCI), 48 h
HT29 colon = test system: HT29 colon
HCC-2998 colon = test system: HCC-2998 colon
SF-268 CNS = test system: SF-268 CNS
HOP-62 NSCLC = test system: HOP-62 NSCLC
XF 498 CNS = test system: XF 498 CNS
IGROV1 ovarian = test system: IGROV1 ovarian
DMS 114 small cell lung = test system: DMS 114 small cell lung
786-0 renal = test system: 786-0 renal
M19-MEL melanoma = test system: M19-MEL melanoma
KM12 colon = test system: KM12 colon
UACC-62 melanoma = test system: UACC-62 melanoma
UO-31 renal = test system: UO-31 renal
CCRF-CEM leukemia = test system: CCRF-CEM leukemia
KM20L2 colon = test system: KM20L2 colon
K-562 leukemia = test system: K-562 leukemia
RPMI-8226 leukemia = test system: RPMI-8226 leukemia
HL-60(TB) leukemia = test system: HL-60(TB) leukemia
HCT-116 colon = test system: HCT-116 colon
SN12C renal = test system: SN12C renal
CAKI-1 renal = test system: CAKI-1 renal
OVCAR-5 ovarian = test system: OVCAR-5 ovarian
LXFL 529 NSCLC = test system: LXFL 529 NSCLC
TK-10 renal = test system: TK-10 renal
LOX IMVI melanoma = test system: LOX IMVI melanoma
DLD-1 colon = test system: DLD-1 colon
MOLT-4 leukemia = test system: MOLT-4 leukemia
EKVX NSCLC = test system: EKVX NSCLC
SW-620 colon = test system: SW-620 colon
NCI-H522 lung = test system: NCI-H522 lung
A549 NSCLC = test system: A549 NSCLC
HOP-18 NSCLC = test system: HOP-18 NSCLC
MALME-3M melanoma = test system: MALME-3M melanoma
NCI-H226 lung = test system: NCI-H226 lung
SK-MEL-5 melanoma = test system: SK-MEL-5 melanoma
RXF-631 renal = test system: RXF-631 renal
SK-MEL-2 melanoma = test system: SK-MEL-2 melanoma
UACC-257 melanoma = test system: UACC-257 melanoma
SK-OV-3 ovarian = test system: SK-OV-3 ovarian
OVCAR-8 ovarian = test system: OVCAR-8 ovarian
M14 melanoma = test system: M14 melanoma
HOP-92 NSCLC = test system: HOP-92 NSCLC
SR leukemia = test system: SR leukemia
COLO 205 colon = test system: COLO 205 colon
OVCAR-4 ovarian = test system: OVCAR-4 ovarian
OVCAR-3 ovarian = test system: OVCAR-3 ovarian
SF-295 CNS = test system: SF-295 CNS
SK-MEL-28 melanoma = test system: SK-MEL-28 melanoma
SNB-19 CNS = test system: SNB-19 CNS
ACHN renal = test system: ACHN renal
NCI-H460 lung = test system: NCI-H460 lung
NCI-H23 lung = test system: NCI-H23 lung
SF-539 CNS = test system: SF-539 CNS
U251 CNS = test system: U251 CNS

Cc1ccc2c(c1)C1(OC(=O)c3ccccc31)c1ccc(F)cc1O2 (stereo not drawn)
TGI (HT29 colon): > 100 µM | TGI (HCC-2998 colon): > 100 µM | TGI (SF-268 CNS): > 100 µM | TGI (HOP-62 NSCLC): > 100 µM | TGI (XF 498 CNS): > 100 µM | TGI (IGROV1 ovarian): > 100 µM | TGI (DMS 114 small cell lung): > 100 µM | TGI (786-0 renal): > 100 µM | TGI (M19-MEL melanoma): > 100 µM | TGI (KM12 colon): > 100 µM | TGI (UACC-62 melanoma): > 100 µM | TGI (UO-31 renal): 75.8 µM | TGI (CCRF-CEM leukemia): > 100 µM | TGI (KM20L2 colon): > 100 µM | TGI (K-562 leukemia): > 100 µM | TGI (RPMI-8226 leukemia): 74.1 µM | TGI (HL-60(TB) leukemia): 51 µM | TGI (HCT-116 colon): > 100 µM | TGI (SN12C renal): > 100 µM | TGI (CAKI-1 renal): > 100 µM | TGI (OVCAR-5 ovarian): > 100 µM | TGI (LXFL 529 NSCLC): > 100 µM | TGI (TK-10 renal): > 100 µM | TGI (LOX IMVI melanoma): > 100 µM | TGI (DLD-1 colon): > 100 µM | TGI (MOLT-4 leukemia): 54.9 µM | TGI (EKVX NSCLC): > 100 µM | TGI (SW-620 colon): > 100 µM | TGI (NCI-H522 lung): > 100 µM | TGI (A549 NSCLC): > 100 µM | TGI (HOP-18 NSCLC): > 100 µM | TGI (MALME-3M melanoma): > 100 µM | TGI (NCI-H226 lung): 85.8 µM | TGI (SK-MEL-5 melanoma): > 100 µM | TGI (RXF-631 renal): > 100 µM | TGI (SK-MEL-2 melanoma): > 100 µM | TGI (UACC-257 melanoma): > 100 µM | TGI (SK-OV-3 ovarian): > 100 µM | TGI (OVCAR-8 ovarian): > 100 µM | TGI (M14 melanoma): > 100 µM | TGI (HOP-92 NSCLC): > 100 µM | TGI (SR leukemia): 73.8 µM | TGI (COLO 205 colon): > 100 µM | TGI (OVCAR-4 ovarian): > 100 µM | TGI (OVCAR-3 ovarian): > 100 µM

CCOC(=O)/C(C#N)=C1/Sc2c(ncn(/N=C/c3ccc(OC)cc3)c2=O)N1c1ccccc1
TGI (HT29 colon): > 100 µM | TGI (SF-295 CNS): 76.2 µM | TGI (HCC-2998 colon): > 100 µM | TGI (SK-MEL-28 melanoma): 81.5 µM | TGI (SF-268 CNS): 77.7 µM | TGI (HOP-62 NSCLC): 62.3 µM | TGI (IGROV1 ovarian): > 100 µM | TGI (SNB-19 CNS): > 100 µM | TGI (M19-MEL melanoma): > 100 µM | TGI (KM12 colon): > 100 µM | TGI (UACC-62 melanoma): > 100 µM | TGI (ACHN renal): > 100 µM | TGI (UO-31 renal): > 100 µM | TGI (CCRF-CEM leukemia): > 100 µM | TGI (K-562 leukemia): > 100 µM | TGI (RPMI-8226 leukemia): > 100 µM | TGI (HL-60(TB) leukemia): > 100 µM | TGI (HCT-116 colon): > 100 µM | TGI (LXFL 529 NSCLC): > 100 µM | TGI (TK-10 renal): > 100 µM | TGI (DLD-1 colon): > 100 µM | TGI (MOLT-4 leukemia): > 100 µM | TGI (SW-620 colon): > 100 µM | TGI (NCI-H522 lung): > 100 µM | TGI (A549 NSCLC): > 100 µM | TGI (NCI-H226 lung): > 100 µM | TGI (SK-MEL-5 melanoma): > 100 µM | TGI (NCI-H460 lung): > 100 µM | TGI (UACC-257 melanoma): > 100 µM | TGI (SK-OV-3 ovarian): > 100 µM | TGI (OVCAR-8 ovarian): > 100 µM | TGI (HOP-92 NSCLC): 59 µM | TGI (SR leukemia): > 100 µM | TGI (NCI-H23 lung): > 100 µM | TGI (COLO 205 colon): > 100 µM | TGI (SF-539 CNS): 34.8 µM | TGI (U251 CNS): > 100 µM | TGI (OVCAR-3 ovarian): > 100 µM
